These results are taken from patent publication US20170129958A1, “COMBINATION THERAPY” (ImClone LLC, priority 2014, published 2017).

Read-outs that look alike come from different tables or passages of the source.

Assay [1] has as its system patients with advanced STS. Conditions: interim analysis; for Disease Control Rate (CR + PR + SD) (%) (90% CI) / ORR (CR + PR) (%) (90% CI): RECIST 1.1. The protocol:
The Study is an open-label, multicenter, Phase 2 trial in which patients with advanced STS not amenable to treatment with surgery or radiotherapy are treated with olaratumab in combination with doxorubicin or doxorubicin alone.
Enrolled patients who meet all eligibility criteria are randomized 1:1 to one of two treatment arms, Arm A or Arm B. Arm A patients receive olaratumab in combination with doxorubicin (hereinafter the “Combination Arm”) and Arm B patients receive doxorubicin alone (hereinafter the “Doxorubicin Arm”). Randomization of this Study is performed according to a dynamic randomization algorithm using 4 pre-defined risk factors: PDGFRα expression (positive vs. negative), number of previous lines of treatment (0 vs. 1+lines), histological tumor type (i.e., leiomyosarcoma vs. synovial sarcoma vs. other tumor type), and ECOG performance status (0-1 vs. 2). This dynamic randomization procedure is used to minimize imbalance between treatment groups. To determine tumor type and PDGFRα expression in patients, a tumor sample from either a biopsy or previously archived tumor tissue sample is sufficient. Biopsy is required to be performed within 21 days prior to randomization; archived tissue sample must also be available within this timeframe.
Combination Arm: 64 patients randomized in the Combination Arm receive 15 mg/kg of olaratumab on Days 1 and 8 of each 21-day treatment cycle, in combination with 75 mg/m^2 doxorubicin administered on Day 1 of each cycle. (Note: if premedication is required prior to the first doxorubicin infusion, this is to be done after the completion of olaratumab infusion, not before the olaratumab infusion. This premedication may be administered within the hour that follows completion of the olaratumab infusion.) The actual (not planned) administration of each doxorubicin infusion defines Day 1 of each 21-day treatment cycle. The combination treatment just described is to continue for up to 8 cycles at the investigator's discretion. During Cycles 5 through 8, patients being treated with doxorubicin may also be administered 750 mg/m^2 dexrazoxane on Day 1 of each cycle, (at the investigator's discretion) prior to doxorubicin on Day 1 of each 21-day cycle. If the dose of doxorubicin is reduced at any point in the Study, the dose of dexrazoxane is to be reduced accordingly, maintaining a dosage ratio of 10:1. For example, if doxorubicin is reduced to 60 mg/m^2, then dexrazoxane is to be reduced to 600 mg/m^2. Doxorubicin may be administered within the hour that follows completion of the olaratumab infusion. In the absence of PD or other withdrawal criteria, patients in the Combination Arm who have completed eight cycles of therapy are to receive subsequent olaratumab monotherapy, administered on Days 1 and 8 of each 21-day cycle. Furthermore, if doxorubicin is discontinued (e.g., for reasons of toxicity) prior to end of cycle 8 and in the absence of withdrawal criteria, patients may continue to receive olaratumab monotherapy. For patients who discontinue olaratumab during the first 8 cycles of treatment, doxorubicin may be continued (for up to 8 cycles), provided no withdrawal criteria are met.
Doxorubicin Arm: 65 patients randomized in the Doxorubicin Arm receive 75 mg/m^2 doxorubicin on Day 1 of each cycle, for up to 8 cycles at the investigator's discretion. The actual (not planned) administration of each doxorubicin infusion defines Day 1 of each 21-day treatment cycle. During cycles 5 through 8, 750 mg/m^2 dexrazoxane may also be administered on Day 1 of each cycle, (at the investigator's discretion) prior to doxorubicin on Day 1 of each 21-day cycle. If the dose of doxorubicin is reduced at any point in the Study, the dose of dexrazoxane is to be reduced accordingly, maintaining a dosage ratio of 10:1. For example, if doxorubicin is reduced to 60 mg/m^2, then dexrazoxane is to be reduced to 600 mg/m^2.

The subject of assay [2] is SKLMS-1 leiomyosarcoma xenograft. Put plainly: SKLMS-1 leiomyosarcoma xenograft model. The conditions noted are these: day 21; olaratumab 60 mg/kg (loading dose 214 mg/kg), doxorubicin 3 mg/kg, i.p. twice a week; versus saline control. Type of assay: in vivo, nu/nu athymic mice. On the procedure: 6 to 7-week-old female nu/nu athymic mice are injected with 5×10^6 SKLMS-1 (ATCC #HBT-88) cells/mouse in 50% Matrigel (BD Biosciences #356235). When tumors are approximately 300 mm^3 in volume, the mice are randomized by tumor volume into 4 treatment groups (n=12): Group 1 control mice are dosed with USP Saline (Aldwin Scientific #2F7124) at 10 μL/gram, Group 2 mice are dosed with olaratumab at 60 mg/kg (loading dose 214 mg/kg), Group 3 mice are dosed with doxorubicin (Sigma #D-1515) at 3 mg/kg and Group 4 mice are dosed with a combination of olaratumab and doxorubicin at the monotherapy concentrations of 60 mg/kg olaratumab and 3 mg/kg doxorubicin. The combinations are dosed so that olaratumab is administered 1-2 hours prior to doxorubicin on the days of treatment. All treatments are administered via intra-peritoneal injection twice a week on Tuesday and Friday.
Olaratumab and doxorubicin are prepared in USP Saline. Tumor volume is measured by three dimensional caliper measurements twice a week during the course of the study and calculated as volume in mm^3=L (longer of measured dimension)×W^2 (shorter dimension)×(pi/6). […] Relative changes in tumor volume (% T/C) are calculated using the tumor volume measurements taken at day 21 and the baseline tumor volume is the volume recorded on or just prior to first day of dosing.

Assay [3] has as its system KHOS/NP osteosarcoma xenograft. Put plainly: KHOS/NP osteosarcoma xenograft model. Type of assay: in vivo, nu/nu athymic mice. Conditions: day 32; olaratumab 60 mg/kg (loading dose 214 mg/kg), doxorubicin 3 mg/kg, i.p. twice a week; versus saline control. The protocol: 6 to 7-week-old female nu/nu athymic mice are injected with 1×10^6 KHOS/NP (ATCC #CRL-1544) cells/mouse in 50% Matrigel (BD Biosciences #356235). When tumors are approximately 450 mm^3 in volume, the mice are randomized by tumor volume into 4 treatment groups (n=12): Group 1 control mice are dosed with USP Saline (Aldwin Scientific #2F7124) at 10 μL/gram, Group 2 mice are dosed with olaratumab at 60 mg/kg (loading dose 214 mg/kg), Group 3 mice are dosed with doxorubicin (Sigma #D-1515) at 3 mg/kg and Group 4 mice are dosed with a combination of olaratumab and doxorubicin at the monotherapy concentrations of 60 mg/kg olaratumab and 3 mg/kg doxorubicin. The combinations are dosed so that doxorubicin is administered 3 hours prior to olaratumab on the days of treatment. All treatments are administered via intra-peritoneal injection twice a week on Monday and Thursday.
Olaratumab and doxorubicin are prepared in USP Saline. Tumor volume is measured by three dimensional caliper measurements twice a week during the course of the study and calculated as volume in mm^3=L (longer of measured dimension)×W^2 (shorter dimension)×(pi/6). […] Relative changes in tumor volume (% T/C) are calculated using the tumor volume measurements taken at day 32, whereas the baseline tumor volume is the volume recorded on or just prior to first day of dosing.

The test system of assay [4] is A204 rhabdoid tumor xenograft. Put plainly: A204 rhabdoid xenograft model. Type of assay: in vivo, nu/nu athymic mice. Conditions: day 30; olaratumab 40 mg/kg i.p. 3x a week; versus HuIgG control. The protocol:
7 to 8-week-old female nu/nu athymic mice are injected with 5×10^6 A204 (ATCC #CRL-7900) cells/mouse in 100% Matrigel (BD Biosciences #356235). When tumors are approximately 340 mm^3 in volume, the mice are randomized by tumor volume into 2 treatment groups (n=12): Group 1 control mice are dosed with HuIgG (Equitech-Bio #SLH66-0001) at 40 mg/kg and Group 2 mice are dosed with olaratumab at 40 mg/kg. All treatments are administered via intra-peritoneal injection 3×a week on Monday, Wednesday and Friday.
Olaratumab is diluted in USP Saline (Aldwin Scientific #2F7124) at 4 mg/mL. Tumor volume is measured by three dimensional caliper measurements twice a week during the course of the study and calculated as volume in mm^3=L (longer of measured dimension)×W^2 (shorter dimension)×(pi/6). A repeated measures ANOVA is used to evaluate the differences in tumor growth and body weight between the treatment groups. Relative changes in tumor volume (%T/C) are calculated using the tumor volume measurements taken at day 30, whereas the baseline tumor volume is the volume recorded on or just prior to first day of dosing.

[5] abbreviates: patients sub-typed with leiomyosarcoma.

With `COc1cccc2c1C(=O)c1c(O)c3c(c(O)c1C2=O)C[C@@](O)(C(=O)CO)C[C@@H]3O[C@H]1C[C@H](N)[C@H](O)[C@H](C)O1` [doxorubicin], the “OS Median Weeks (90% CI)” value in assay [1] (all STS subtypes, Kaplan-Meier) is 58.7 weeks. The “PFS Median Weeks (90% CI)” value in assay [1] (all STS subtypes, Kaplan-Meier, olaratumab 15 mg/kg Days 1 and 8, doxorubicin 75 mg/m^2 Day 1, 21-day cycle) is reported as 17.9 weeks. Besides, in assay [1] (12 months), the “12-month OS rate” value amounted to 55.1%. In assay [1] (18 months), the “18-month OS rate” value is reported as 40.0%. For the same molecule, in assay [1], the “Disease Control Rate (CR + PR + SD) (%) (90% CI)” value was 53.8% and the “ORR (CR + PR) (%) (90% CI)” value stood at 10.8%. Also, in assay [1] (listed as Doxorubicin Arm), the “Disease Control Rate (CR + PR + SD) (%) (90% CI)” value is 53.8% and the “ORR (CR + PR) (%) (90% CI)” value turned out to be 10.8%. In assay [1] (patients sub-typed as other sarcomas), the “PFS Other Sarcoma Median Weeks (90% CI)” value was 19.0 weeks. Also, in assay [1] (setting [5]), the “OS Leiomyosarcoma Median Weeks (90% CI)” value is given as 45.3 weeks and the “PFS Leiomyosarcoma Median Weeks (90% CI)” value worked out at 15.7 weeks. The “OS Other Sarcoma Median Weeks (90% CI)” value in assay [1] (patients sub-typed with other sarcomas) was found to be 78.1 weeks. Moreover, the “% T/C (relative change in tumor volume)” value in assay [2] stood at 64%. Further, the “% T/C (relative change in tumor volume)” value in assay [3] worked out at 72%.

Turning to “olaratumab: recombinant human monoclonal IgG1 anti-PDGFRα antibody; two heavy chains SEQ ID NO: 9, two light chains SEQ ID NO: 10; CAS 1024603-93-7”, the “% T/C (relative change in tumor volume)” value in assay [2] came out at 64%; in assay [3], 79%; in assay [4], 37%.
